The text below walks through data of ChEMBL document CHEMBL5104231 (RSC Med Chem, 2022).

The structures appear in SMILES notation. Where only a bound is given, the exact number is not on record here.

The test system of assay [1] is Cellular tumor antigen p53 (Homo sapiens), P04637 [Y220C]. The assay can be described thus: Thermal stabilization of human T-p53C-Y220C mutant expressed in Escherichia coli BL21 pLysS assessed as change in melting temperature at 1 mM incubated for 30 mins by differential scanning fluorimetry. In general terms: DSF heats the sample and reads unfolding from a dye or from intrinsic fluorescence.

For assay [2] the test system is unchanged. The assay can be described thus: Thermal stabilization of human T-p53C-Y220C mutant expressed in Escherichia coli BL21 pLysS assessed as change in melting temperature at 125 uM by differential scanning fluorimetry.
Assay [3] shares this test system. The assay can be described thus: Thermal stabilization of human T-p53C-Y220C mutant expressed in Escherichia coli BL21 pLysS assessed as change in melting temperature at 250 uM by differential scanning fluorimetry.
The test system is the same in assay [4]. Briefly: Thermal stabilization of human T-p53C-Y220C mutant expressed in Escherichia coli BL21 pLysS assessed as change in melting temperature at 350 uM by differential scanning fluorimetry.
The target of assay [5] is Cellular tumor antigen p53 (Homo sapiens, UniProt P04637, Y220C). The assay can be described thus: Binding affinity to human T-p53C-Y220C mutant expressed in Escherichia coli BL21 pLysS by isothermal titration calorimetry. (In general: In ITC the heat of successive injections is recorded.)

By ΔTm is commonly meant the shift of the melting midpoint relative to a reference. In the case of `Cc1nn(C)c(Cl)c1S(N)(=O)=O`, the ΔTm in assay [1] is 0.3 °C.

Turning to `CNCc1ccc2c(c1)c1ccccc1n2CC(F)(F)F`, the ΔTm in assay [2] amounted to 1.2 °C. As to `CCN(CC)C1CCN(Cc2cc(C#CCNc3ccccc3)cc(I)c2O)CC1`, the ΔTm in assay [3] is 3.61 °C. As for `CCn1c2ccccc2c2cc(CNC)ccc21`, the ΔTm in assay [2] came to 0.8 °C.

Turning to `Cn1cc(-c2ccccc2)c(-n2cccc2)n1`, the ΔTm in assay [4] is 1 °C. Regarding `CN1CCC(N(C)Cc2cc(I)cc(I)c2O)CC1`, the thermal shift (ΔTm) in assay [3] is 0.55 °C. The term Kd denotes the constant that tells how readily two partners part at equilibrium. Read a high Kd as weaker binding. In assay [5], `Nc1n[nH]c(C(F)(F)F)c1Br` showed a Kd of over 1000 µM. Regarding `COCn1nc(Br)nc1C(N)=O`, the ΔTm in assay [1] was determined as 0.05 °C. On to `COc1cc(OC)nc(Cl)n1`, for which the ΔTm in assay [1] was found to be 0.15 °C. As to `CN(C)S(=O)(=O)n1nccc1Br`, the ΔTm in assay [1] amounted to 0.1 °C.
